Test results: patent US6110888A, “Substituted phenols as fragrance, flavor and antimicrobial compounds” (Takasago International Corporation, priority 1999, dated 2000)
Converted amounts (≈) assume the structure as drawn. Like-named read-outs stand apart in the source and are kept apart here.

Legend:
Staphylococcus aureus = assay: MIC, S. aureus (Table 1); assay type: cell-based; conditions: read-out: Anti-Microbial Activity MIC, S. a.
Experimental: (§1) The anti-microbial activity of Examples 1-6 were evaluated.
(§2) Anti-Microbial Activity of Examples 1-6 (MIC in μg/mL)
(§3) Antimicrobial activity was evaluated to determine minimal inhibitory concentration ("MIC") and Minimal Bactericidal Concentration ("MBC"). The specific biological testing protocol is published R. Kang et al., "J. Agric. Food Chem.," vol. 40 pp. 2328-2330 (1994), the entirety of which is herein incorporated by reference.

[1] = test system: Staphylococcus epidermidis; assay: MIC, S. epidermidis (Table 1); assay type: cell-based; conditions: read-out: Anti-Microbial Activity MIC, S. e.
Experimental: as §1, §2, §3

Steptococcus mutans = assay: MIC, S. mutans (Table 1); assay type: cell-based; conditions: Streptococcus mutans, read-out: Anti-Microbial Activity MIC, S. m.
Experimental: as §1, §2, §3

Propionibacterium acnes = assay: MIC, P. acnes (Table 1); assay type: cell-based; conditions: Cutibacterium acnes, read-out: Anti-Microbial Activity MIC, P. acnes
Experimental: as §1, §2, §3

[2] = test system: Corynebacterium minutissimum; assay: MIC, C. minutissimum (Table 1); assay type: cell-based; conditions: read-out: Anti-Microbial Activity MIC, C. m.
Experimental: as §1, §2, §3

Corynebacterium xerosis = assay: MIC, C. xerosis (Table 1); assay type: cell-based; conditions: read-out: Anti-Microbial Activity MIC, C. x.
Experimental: as §1, §2, §3

Actinomyces neaslundii = assay: MIC, A. neaslundii (Table 1); assay type: cell-based; conditions: read-out: Anti-Microbial Activity MIC, A. neasl
Experimental: as §1, §2, §3

Escherichia coli = assay: MIC, E. coli (Table 2); assay type: cell-based; conditions: read-out: Anti-Microbial Activity MIC, E. c.
Experimental: as §2, §3

Pseudomonas aeruginosa = assay: MIC, P. aeruginosa (Table 2); assay type: cell-based; conditions: read-out: Anti-Microbial Activity MIC, P. aerug.
Experimental: as §2, §3

Candida albicans = assay: MIC, C. albicans (Table 2); assay type: cell-based; conditions: read-out: Anti-Microbial Activity MIC, C. a.
Experimental: as §2, §3

Aspergillus niger = assay: MIC, A. niger (Table 2); assay type: cell-based; conditions: read-out: Anti-Microbial Activity MIC, A. niger
Experimental: as §2, §3

oral bacteria = conditions: N. Didry et al. 1994; cited from earlier work
[3] = test system: bacteria involved in upper respiratory tract infections; conditions: N. Didry et al. 1993; cited from earlier work
[4] = S. epidermidis strain 1228, gram+
[5] = C. minutissimum strain 23348, gram+
[6] = A. neaslundii strain 19039, gram+
[7] = P. aeruginosa strain 15442, gram -
[8] = C. albicans strain 10231, fungi

Row | SMILES | MIC (Staphylococcus aureus; S. aureus strain 6535, gram+) [µg/mL] | MIC [1, 4] [µg/mL] | MIC (Steptococcus mutans; S. mutans strain 25175, gram+) [µg/mL] | MIC (Propionibacterium acnes; P. acnes strain 6919, gram+) [µg/mL] | MIC [2, 5] [µg/mL] | MIC (Corynebacterium xerosis; C. xerosis strain 373, gram+) [µg/mL] | MIC (Actinomyces neaslundii; [6]) [µg/mL] | MIC (Escherichia coli; E. coli strain 11229, gram -) [µg/mL] | MIC (Pseudomonas aeruginosa; [7]) [µg/mL] | MIC (Candida albicans; [8]) [µg/mL] | MIC (Aspergillus niger; A. niger strain 16404, fungi) [µg/mL] | also measured
1 | C=CCc1c(C)ccc(C(C)C)c1O [Example 1a, Ortho Allyl Thymol] | 62.5 (≈ 328 µM) | 62.5 (≈ 328 µM) | 62.5 (≈ 328 µM) | 62.5 (≈ 328 µM) | 62.5 (≈ 328 µM) | 62.5 (≈ 328 µM) | 62.5 (≈ 328 µM) | > 1000 | > 1000 | 125 (≈ 657 µM) | 125 (≈ 657 µM) | –
2 | C=CCc1cc(C(C)C)c(O)cc1C [Example 1b, Para Allyl Thymol] | 62.5 (≈ 328 µM) | 62.5 (≈ 328 µM) | 31.2 (≈ 164 µM) | 31.2 (≈ 164 µM) | 62.5 (≈ 328 µM) | 62.5 (≈ 328 µM) | 62.5 (≈ 328 µM) | > 1000 | > 1000 | 125 (≈ 657 µM) | 125 (≈ 657 µM) | –
3 | C=CCc1c(C(C)C)ccc(C)c1O [Example 2a, Ortho Allyl Carvacrol] | 62.5 (≈ 328 µM) | 62.5 (≈ 328 µM) | 62.5 (≈ 328 µM) | 31.2 (≈ 164 µM) | 62.5 (≈ 328 µM) | 62.5 (≈ 328 µM) | 62.5 (≈ 328 µM) | > 1000 | > 1000 | 125 (≈ 657 µM) | 125 (≈ 657 µM) | –
4 | C=CCc1cc(C)c(O)cc1C(C)C [Example 2b, Para Allyl Carvacrol] | 62.5 (≈ 328 µM) | 62.5 (≈ 328 µM) | 62.5 (≈ 328 µM) | 62.5 (≈ 328 µM) | 62.5 (≈ 328 µM) | 62.5 (≈ 328 µM) | – | – | – | 125 (≈ 657 µM) | 125 (≈ 657 µM) | –
5 | CCCc1c(C)ccc(C(C)C)c1O [Example 3a, Ortho Propyl Thymol] | 62.5 (≈ 325 µM) | 62.5 (≈ 325 µM) | 31.2 (≈ 163 µM) | 31.2 (≈ 163 µM) | 62.5 (≈ 325 µM) | 62.5 (≈ 325 µM) | 62.5 (≈ 325 µM) | > 1000 | > 1000 | 125 (≈ 650 µM) | 125 (≈ 650 µM) | –
6 | CCCc1cc(C(C)C)c(O)cc1C [Example 3b, Para Propyl Thymol] | 31.2 (≈ 163 µM) | 31.2 (≈ 163 µM) | 31.2 (≈ 163 µM) | 31.2 (≈ 163 µM) | 31.2 (≈ 163 µM) | 31.2 (≈ 163 µM) | 31.2 (≈ 163 µM) | > 1000 | > 1000 | 62.5 (≈ 325 µM) | 125 (≈ 650 µM) | –
7 | CCCc1c(C(C)C)ccc(C)c1O [Example 4a, Ortho Propyl Carvacrol] | 125 (≈ 650 µM) | 31.2 (≈ 163 µM) | 31.2 (≈ 163 µM) | 31.2 (≈ 163 µM) | 31.2 (≈ 163 µM) | 31.2 (≈ 163 µM) | 31.2 (≈ 163 µM) | > 1000 | > 1000 | 62.5 (≈ 325 µM) | 125 (≈ 650 µM) | –
8 | CCCc1cc(C)c(O)cc1C(C)C [Example 4b, Para Propyl Carvacrol] | ≤ 15.6 | 31.2 (≈ 163 µM) | ≤ 15.6 | ≤ 15.6 | ≤ 15.6 | ≤ 15.6 | ≤ 15.6 | > 1000 | > 1000 | 62.5 (≈ 325 µM) | 62.5 (≈ 325 µM) | –
9 | C=CCc1cc(C(C)(C)C)ccc1O [Example 5, Ortho Allyl Para tert-Butyl Phenol] | 31.2 (≈ 164 µM) | 31.2 (≈ 164 µM) | – | 15.6 (≈ 82 µM) | 31.2 (≈ 164 µM) | 31.2 (≈ 164 µM) | – | > 500 | – | – | – | –
10 | CCCc1cc(C(C)(C)C)ccc1O [Example 6, Ortho Propyl Para tert-Butyl Phenol] | 15.6 (≈ 81.1 µM) | 15.6 (≈ 81.1 µM) | – | 7.8 (≈ 40.6 µM) | 15.6 (≈ 81.1 µM) | 15.6 (≈ 81.1 µM) | – | > 500 | – | – | – | –
11 | Cc1ccc(C(C)C)c(O)c1 [Thymol, thymol, reference compound] | 250 (≈ 1660 µM) | 250 (≈ 1660 µM) | 250 (≈ 1660 µM) | 125 (≈ 832 µM) | 125 (≈ 832 µM) | 250 (≈ 1660 µM) | 125 (≈ 832 µM) | 250 (≈ 1660 µM) | > 1000 | 250 (≈ 1660 µM) | 125 (≈ 832 µM) | inhibitory activity on several microorganisms (oral bacteria): showed an inhibitory activity on several microorganisms; antimicrobial activity in several in vitro methods [3]: broad spectrum activity
12 | Cc1ccc(C(C)C)cc1O [carvacrol, reference compound] | – | – | – | – | – | – | – | – | – | – | – | MIC (Staphylococcus aureus): 125 µg/mL (≈ 832 µM); MIC [1]: 125 µg/mL (≈ 832 µM); MIC (Steptococcus mutans): 125 µg/mL (≈ 832 µM); MIC (Propionibacterium acnes): 125 µg/mL (≈ 832 µM); MIC [2]: 125 µg/mL (≈ 832 µM); MIC (Corynebacterium xerosis): 125 µg/mL (≈ 832 µM); MIC (Actinomyces neaslundii): 125 µg/mL (≈ 832 µM); MIC (Escherichia coli): 500 µg/mL (≈ 3330 µM); MIC (Pseudomonas aeruginosa): > 1000 µg/mL; MIC (Candida albicans): 250 µg/mL (≈ 1660 µM); MIC (Aspergillus niger): 250 µg/mL (≈ 1660 µM); inhibitory activity on several microorganisms (oral bacteria): showed an inhibitory activity on several microorganisms; antimicrobial activity in several in vitro methods [3]: broad spectrum activity
13 | O=CC=Cc1ccccc1 [cinnamaldehyde] | – | – | – | – | – | – | – | – | – | – | – | inhibitory activity on several microorganisms (oral bacteria): showed an inhibitory activity on several microorganisms; antimicrobial activity in several in vitro methods [3]: broad spectrum activity
14 | C=CCc1ccc(O)c(OC)c1 [eugenol] | – | – | – | – | – | – | – | – | – | – | – | inhibitory activity on several microorganisms (oral bacteria): showed an inhibitory activity on several microorganisms
